{"source": "patent US20240366611A1", "about": "“METHODS OF TREATING A DISEASE OR DISORDER” (Ascentage Pharma (Suzhou) Co., Ltd., priority 2021, published 2024)", "key": {"[1]": {"tested_on": "HbF+ cells in human CD34+ HSC", "experiment": "HbF+ cell % in human CD34+ HSC by FACS", "assay_type": "cell-based", "details": "7 days of treatment", "experimental": "Human cord blood CD34+ hematopoietic stem cells (HSC) were first expanded in the expansion medium (StemSpan SFEM II+StemSpan CD34 Expansion Supplement) to achieve the desired number of cells, and then differentiated in differentiation medium (StemSpan SFEM II+StemSpan Erythroid Expansion Supplement (100×)) for three days without drug treatment. Various concentrations of Cpd. 73 were added on the fourth day of differentiation and further incubated with the cells for another 7 days. 33 mM Hydroxyurea was used as the control.\nAfter 7 days of treatment, the cells were collected and stained with PE-conjugated Mouse Anti-Human Fetal Hemoglobin (BD, 560041). The percentage of HbF+ cells were quantified by FACS. […] 73 respectively. […] 73 where HbF+ cell % was 2.58-folds of the vehicle group (p<0.0001). The % of HbF+ cells was 1.82-folds of the vehicle group when the cells were treated with 33 mM Hydroxyurea."}, "[2]": {"tested_on": "TNBS induced IBD in Balb/c mice", "experiment": "TNBS induced inflammatory bowel disease (IBD) model", "assay_type": "in vivo", "experimental": "Female Balb/c mice (8 weeks old) were obtained from Beijing Vital River Laboratory Animal Co. Ltd. Animals, and then housed and handled in a temperature-controlled environment with a 12-h light/12-h dark cycle. A total of 30 mice were assigned to 3 groups by randomization based on body weight.\nOn Day 0, the mice weighing 18-20 g were anesthetized with […] (Easycheck, M2910), and then further intra-rectally injected 100 μL 1.5% TNBS solution (final concentration in 50% ethanol) in the vehicle group and treatment groups. For the Sham group, the mice were intra-rectally injected with 50% ethanol at the same volume.\nMice in Group 1 and Group 2 were treated with vehicle for 8 days (po, qd, from day −1 to day 6). Mice in Group 3 were treated with 90 mg/kg Cpd. 73 for 8 days (po, qd, from day −1 to day 6). The protocols and procedures involving the care and use of animals were approved by the Institutional Animal Care and Use Committee (IACUC) at WuxiApptec (Shanghai, China).\nClinical signs of IBD were assessed every day based on the score of disease activity index (DAI) which was evaluated from three parameters using a scoring system from 0 to 4: stool consistency (0, normal stool; 1, soft but still formed stool; 2, soft and not formed stool; 3, very soft and wet stool; 4, watery diarrhea), bleeding score (0, negative hemoccult; 1, weak positive hemoccult; 2, positive hemoccult; 3, blood trace in stool visible; 4, gross rectal bleeding) and body weight loss (0, no body weight loos; 1, 1-5% body weight loss; 2, 6-10% body weight loss; 3, 11-20% body weight loss; 4, >20% body weight loss).\nAt the end of experiment (day 7), the animals were euthanized, dissected and the entire colon was quickly removed and gently cleared of feces.\nAt the end of experiment, the animals were euthanized, and blood was collected immediately by the heart punctures and used for whole blood cell analysis.\nAt the end of the study (day 7), the cell suspensions from sham control, model control and Cpd. 73 treatment groups were obtained from mesenteric lymph nodes (MLN). Cells were stained with the following florescence-labelled antibodies: APC-Cy7-conjugated anti-mouse CD45, BV510-conjugated anti-mouse CD3e, AF700-conjugated anti-mouse CD8a, BUV395-conjugated anti-mouse CD4, BV421-conjugated anti-mouse CD25, FITC-conjugated anti-mouse Foxp3, BV650-conjugated anti-mouse IFN-γ, APC-conjugated anti-mouse B220, BV395-conjugated anti-mouse CD3e, BV605-conjugated anti-mouse CD11b, BB700-conjugated anti-mouse CD11c, AF488-conjugated anti-mouse MHCII, BV421-conjugated anti-mouse NK1.1, BV510-conjugated anti-mouse Ly6G, PE-Cy7-conjugated anti-mouse CD107a and PE-CF594-conjugated anti-mouse F4/80. All cells were primarily gated on single and live lymphocytes based on forward scatter (FCS), side scatter (SSC) and live/dead staining buffer. Samples were analyzed on a flow cytometer (BD LSRFortessa) to count the percentage of each subtype of lymphocytes.\nAt the end of the study (day 7), all the animals were sacrificed by CO2. The colon was Swiss-rolled and fixed with neutralized PFA followed by H&E staining. After that, the pathologists from WuXi clinical pathological analysis platform, who were blinded to animal ID, reviewed the H&E staining and scored. The pathological scoring standards were as follows: crypt architecture (normal, 0; severe crypt distortion with loss of entire crypts, 3), degree of inflammatory cell infiltration (normal, 0; dense inflammatory infiltrate, 3), muscle thickening (normal, 0; marked muscle thickening present, 3), goblet cell depletion (absent, 0; present, 1) and crypt abscess (absent, 0; present, 1).\nThe fixed colon was stained with Masson's Trichrome to assess the collagen fibers in colon tissue. The Masson's Trichrome staining procedures was followed the standard protocol. After that, the pathological doctors from WuXi clinical pathological analysis platform reviewed the whole slices and scored blinded with animal information. […]"}, "[3]": {"tested_on": "chronic kidney disease-induced anemia in SD rats", "experiment": "Rat model of chronic kidney disease-induced anemia (adenine)", "assay_type": "in vivo", "details": "5, 15, 45 mg/kg po QD×4 weeks, end of study", "experimental": "SPF-grade male SD rats (200±20 g, 8 weeks) were purchased from Zhejiang Vital River Laboratory Animal Technology Co., Ltd. After acclimating for a week, blood samples were collected and analyzed to exclude anormal animals. The normal animals were randomized, 10 animals were assigned into Control group which were left untreated until the end of the study, and the rest animals received 300 mg/kg adenine by oral gavage (QD×6 weeks). […] Then 60 adenine-treated rats with successful model establishment were further randomized into the following six groups: Model group (treated with vehicle), EPO group (50 U/kg), Cpd. 73 5 mg/kg group, Cpd. 73 15 mg/kg group, Cpd. 73 45 mg/kg group and CPD. 73+EPO group (15 mg/kg+50 U/kg). Each group contained 10 animals. Cpd. 73 was administered to rats by oral gavage (QD×4 weeks), while EPO was subcutaneously administered (TIW×4 weeks).\nBody weight, mortality and health condition of rats were recorded twice a week. After model establishment, blood samples were take from the orbit and a few parameters were determined including RBC, HGB, HCT, RET, BUN and Creatine. Blood samples were taken once a week during drug treatment and RBC, HGB, HCT, and RET were analyzed."}, "[4]": {"details": "90 mg/kg po qd day −1 to day 6, end of experiment, vs vehicle"}, "[5]": {"details": "90 mg/kg po qd day −1 to day 6, vs vehicle"}, "[6]": {"details": "90 mg/kg, day 7, flow cytometry, vs vehicle control"}}, "data": [{"smiles": "CC(C)N1Cc2cc(C(F)(F)F)ncc2-c2cnc(NCc3c(F)ccc4c3CCO4)n3cnc(c23)C1=O", "note": "[Cpd. 73, 12-(((5-fluoro-2,3-dihydrobenzofuran-4-yl)methyl)amino)-4-isopropyl-7-(trifluoromethyl)-4,5-dihydro-3H-2,4,8,11,12a-pentaazabenzo[4,5]cycloocta[1,2,3-cd]inden-3-one]", "values": [{"measurement": "% of HbF+ cells, folds of the vehicle group", "setting": "[1]; 0.01 μM", "value": 0.73, "unit": "folds"}, {"measurement": "% of HbF+ cells, folds of the vehicle group", "setting": "[1]; 0.03 μM", "value": 0.86, "unit": "folds"}, {"measurement": "% of HbF+ cells, folds of the vehicle group", "setting": "[1]; 0.1 μM", "value": 1.50, "unit": "folds"}, {"measurement": "% of HbF+ cells, folds of the vehicle group", "setting": "[1]; 0.3 μM", "value": 1.73, "unit": "folds"}, {"measurement": "% of HbF+ cells, folds of the vehicle group", "setting": "[1]; 1.0 μM, maximal effect, p<0.0001", "value": 2.58, "unit": "folds"}, {"measurement": "colon length", "setting": "[2]; 90 mg/kg po qd day −1 to day 6, day 7, vehicle 6.26±0.17 cm", "value": "8.79±0.22", "unit": "cm"}, {"measurement": "pathological score (H&E, colon)", "setting": "[2]; 90 mg/kg po qd day −1 to day 6, day 7, vehicle 10.33±0.35", "value": "1.70±0.37"}, {"measurement": "colon weight", "setting": "[2]; 90 mg/kg po qd day −1 to day 6, day 7, vehicle 336.8±26.68 mg", "value": "213.8 ± 6.08", "unit": "mg"}, {"measurement": "anemia (red blood cells and hemoglobin in peripheral blood)", "setting": "[2]; 90 mg/kg po qd day −1 to day 6, end of experiment", "value": "improved"}, {"measurement": "cell number of monocytes in peripheral blood", "setting": "[2]; [4]", "value": "significantly reduced"}, {"measurement": "cell number of neutrophils in peripheral blood", "setting": "[2]; [4]", "value": "significantly reduced"}, {"measurement": "fibrosis score (Masson's Trichrome, colon)", "setting": "[2]; 90 mg/kg po qd day −1 to day 6, vehicle 4.33±0.30", "value": "1.10±0.17"}, {"measurement": "DAI score", "setting": "[2]; [5]", "value": "significantly reducing"}, {"measurement": "body weight loss", "setting": "[2]; [5]", "value": "improving"}, {"measurement": "percentage of IFN-γ secreting CD4+ T cells (Th1 cells) in MLN", "setting": "[2]; [6]", "value": "significantly reduced"}, {"measurement": "percentage of NK cells in MLN", "setting": "[2]; [6]", "value": "significantly reduced"}, {"measurement": "percentage of activated NK cells in MLN", "setting": "[2]; [6]", "value": "significantly reduced"}, {"measurement": "percentage of macrophages in MLN", "setting": "[2]; [6]", "value": "significantly reduced"}, {"measurement": "percentage of neutrophils in mesenteric lymph nodes (MLN)", "setting": "[2]; [6]", "value": "significantly reduced"}, {"measurement": "body weight", "setting": "[3]; p<0.001 or 0.01 vs Model", "value": "dose-dependently improved"}, {"measurement": "HCT", "setting": "[3]; p<0.001 or 0.05 vs Model", "value": "dose-dependently improved"}, {"measurement": "HGB", "setting": "[3]; p<0.001 or 0.05 vs Model", "value": "dose-dependently improved"}, {"measurement": "RBC", "setting": "[3]; p<0.001 or 0.05 vs Model", "value": "dose-dependently improved"}, {"measurement": "RET", "setting": "[3]; p<0.001 or 0.05 vs Model", "value": "dose-dependently improved"}]}]}
